The results in this text go back to the supplement of paper PMC11061612.

Common to all, as to assay: Bliss excess, mean over the matrix (fraction); higher = more synergy
Experiment [1] has as its system NCI-H2141 (Small Cell Lung Carcinoma). An outline of the steps:
(§1)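 After 24 hours at 37°C and 5% CO2 in 1536-well plates, cells in DMEM/F12 or RPMI plus 10% FBS received two-drug dose matrices for 72 hours. Viability came from CellTiter-Glo 2.0 luminescence and was scaled as inhibition, anchored at 0 by vehicle wells and at 1 by blank wells. Combination Emax is taken as the second-highest inhibition in the matrix, and Bliss excess as the observed combination effect less EA + EB − EA·EB, with EA and EB the single-agent effects.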

Experiment [2] concerns MDST8 (Colorectal Carcinoma). An outline of the steps:
as §1

Experiment [3] relates to BICR22 (Oral Cavity Carcinoma). An outline of the steps: as §1
In experiment [4] the test system is COLO-320-HSR (Colorectal Carcinoma). An outline of the steps:
as §1

The subject of experiment [5] is CAPAN-2 (Pancreatic Carcinoma). A digest of the protocol:
as §1

The test system of experiment [6] is NCI-H1650 (Lung Adenocarcinoma). An outline of the steps: as §1

`NC1(C(=O)N[C@@H](CCO)c2ccc(Cl)cc2)CCN(c2ncnc3[nH]ccc23)CC1` [Capivasertib] + CC(C)n1c(=O)n(C)c2cnc3cc(F)c(-c4ccc(OCCCN5CCCCC5)nc4)cc3c21 [AZD1390] (first compound max 10 µM, 7x7, partner max 0.3 µM): the Bliss excess in experiment [1] is -0.0051; in experiment [2], -0.0327; in experiment [3] it was -0.018; in experiment [4], -0.0512; in experiment [5], -0.0651; in experiment [6] it was -0.0219.
On to `NC1(C(=O)N[C@@H](CCO)c2ccc(Cl)cc2)CCN(c2ncnc3[nH]ccc23)CC1` [Capivasertib] + CCN(CCO)CCCOc1ccc2c(Nc3cc(CC(=O)Nc4cccc(F)c4)[nH]n3)ncnc2c1 [AZD2811] (first compound max 10 µM, 7x7, partner max 1 µM), for which the Bliss excess in experiment [1] is -0.0237; in experiment [2], 0.011; in experiment [3], -0.0012; in experiment [4] it was -0.0018; in experiment [5], -0.0213; in experiment [6], 0.0052.
On to `NC1(C(=O)N[C@@H](CCO)c2ccc(Cl)cc2)CCN(c2ncnc3[nH]ccc23)CC1` [Capivasertib] + COc1nnc2ccc(N3CCC(c4ccc(OCCN5CCN(C)C(=O)[C@H]5C)cc4)CC3)nn12 [AZD5153] (first compound max 10 µM, 7x7, partner max 1 µM), for which the Bliss excess was 0.0061 in experiment [1]; 0.105 in experiment [2]; 0.024 in experiment [3]; -0.0289 in experiment [4]; -0.0143 in experiment [5]; 0.0322 in experiment [6].
As for `NC1(C(=O)N[C@@H](CCO)c2ccc(Cl)cc2)CCN(c2ncnc3[nH]ccc23)CC1` [Capivasertib] + C[C@@H]1COCCN1C2=NC(=NC(=C2)C3(CC3)[S@](=N)(=O)C)C4=C5C=CNC5=NC=C4 [AZD6738] (first compound max 10 µM, 7x7, partner max 10 µM), the Bliss excess in experiment [1] is 0.0049; in experiment [2], -0.0277; in experiment [3], -0.0608; in experiment [4], -0.0883; in experiment [5], -0.0194; in experiment [6] it was -0.0754.
As for `NC1(C(=O)N[C@@H](CCO)c2ccc(Cl)cc2)CCN(c2ncnc3[nH]ccc23)CC1` [Capivasertib] + Cn1cnc2c(F)c(Nc3ccc(Br)cc3Cl)c(C(=O)NOCCO)cc21 [Selumetinib] (first compound max 10 µM, 7x7, partner max 10 µM), the Bliss excess in experiment [1] was -0.051; in experiment [2], 0.0211; in experiment [3] it was 0.114; in experiment [4], 0.0222; in experiment [5], 0.0332; in experiment [6] it was -0.0203.
As for `Cc1nc(Nc2ncc(C(=O)Nc3c(C)cccc3Cl)s2)cc(N2CCN(CCO)CC2)n1` [Dasatinib] + CC(=O)Nc1cccc(-n2c(=O)n(C3CC3)c(=O)c3c(Nc4ccc(I)cc4F)n(C)c(=O)c(C)c32)c1 [Trametinib] (first compound max 2 µM, 7x7, partner max 1 µM), the Bliss excess in experiment [1] was -0.0362; in experiment [2], -0.106; in experiment [3], -0.0037; in experiment [4], -0.0492; in experiment [5], 0.0749; in experiment [6], -0.0167.
Regarding `COc1cccc2c1C(=O)c1c(O)c3c(c(O)c1C2=O)C[C@@](O)(C(=O)CO)C[C@@H]3O[C@H]1C[C@H](N)[C@H](O)[C@H](C)O1` [Doxorubicin] + Cc1cc2ncnn2cc1Nc1ncc2c(n1)n(C1CCOCC1)c(=O)n2C [AZD7648] (first compound max 1 µM, 7x7, partner max 10 µM), the Bliss excess is 0.0099 in experiment [1]; 0.0756 in experiment [2]; 0.0744 in experiment [3]; 0.0307 in experiment [4]; -0.0419 in experiment [5]; -0.0002 in experiment [6].
Regarding `COc1cc2ncnc(Nc3ccc(F)c(Cl)c3)c2cc1OCCCN1CCOCC1` [Gefitinib] + CC(C)n1c(=O)n(C)c2cnc3cc(F)c(-c4ccc(OCCCN5CCCCC5)nc4)cc3c21 [AZD1390] (first compound max 10 µM, 7x7, partner max 0.3 µM), the Bliss excess was -0.0464 in experiment [1]; -0.0584 in experiment [2]; -0.013 in experiment [3]; -0.0398 in experiment [4]; -0.0652 in experiment [5]; -0.0477 in experiment [6].
In the case of `CS(=O)(=O)CCNCc1ccc(-c2ccc3ncnc(Nc4ccc(OCc5cccc(F)c5)c(Cl)c4)c3c2)o1` [Lapatinib] + C[C@@H](Oc1cc(-c2cnn(C3CCNCC3)c2)cnc1N)c1c(Cl)ccc(F)c1Cl [Crizotinib] (first compound max 10 µM, 7x7, partner max 10 µM), the Bliss excess is -0.0758 in experiment [1]; -0.0095 in experiment [2]; -0.0388 in experiment [3]; -0.0416 in experiment [4]; -0.0341 in experiment [5]; 0.0253 in experiment [6].
In the case of `CC(=O)c1c(C)c2cnc(Nc3ccc(N4CCNCC4)cn3)nc2n(C2CCCC2)c1=O` [Palbociclib] + CC1(C)CCC(CN2CCN(c3ccc(C(=O)NS(=O)(=O)c4ccc(NCC5CCOCC5)c([N+](=O)[O-])c4)c(Oc4cnc5[nH]ccc5c4)c3)CC2)=C(c2ccc(Cl)cc2)C1 [Venetoclax] (first compound max 10 µM, 7x7, partner max 1 µM), the Bliss excess in experiment [1] is -0.0298; in experiment [2], -0.0059; in experiment [3], -0.0319; in experiment [4], -0.0625; in experiment [5], -0.0473; in experiment [6], -0.051.
Take `CC(=O)c1c(C)c2cnc(Nc3ccc(N4CCNCC4)cn3)nc2n(C2CCCC2)c1=O` [Palbociclib] + Cc1c2c(nn1C)CSCc1cc(n(C)n1)CSc1cc(c3ccccc3c1)OCCCc1c(C(=O)O)n(C)c3c-2c(Cl)ccc13 [AZD5991] (first compound max 10 µM, 7x7, partner max 1 µM): the Bliss excess is -0.0791 in experiment [1]; -0.0134 in experiment [2]; -0.0568 in experiment [3]; -0.0746 in experiment [4]; -0.0593 in experiment [5]; -0.0409 in experiment [6].
Consider `CC(=O)c1c(C)c2cnc(Nc3ccc(N4CCNCC4)cn3)nc2n(C2CCCC2)c1=O` [Palbociclib] + Cn1cnc2c(F)c(Nc3ccc(Br)cc3Cl)c(C(=O)NOCCO)cc21 [Selumetinib] (first compound max 10 µM, 7x7, partner max 10 µM), for which the Bliss excess in experiment [1] was -0.0432; in experiment [2], -0.031; in experiment [3], 0.102; in experiment [4], -0.0316; in experiment [5], -0.0199; in experiment [6] it was -0.0775.
In the case of `COc1cccc(OCCCN)c1-c1cc(Nc2cnc(C#N)cn2)n[nH]1` [Prexasertib] + C=CCn1c(=O)c2cnc(Nc3ccc(N4CCN(C)CC4)cc3)nc2n1-c1cccc(C(C)(C)O)n1 [AZD1775] (first compound max 1 µM, partner max 1 µM), the Bliss excess in experiment [1] is -0.0348; in experiment [2], 0.0758; in experiment [3], 0.0175; in experiment [4], 0.136; in experiment [5], -0.0231; in experiment [6] it was 0.0005.
On to `COc1cccc(OCCCN)c1-c1cc(Nc2cnc(C#N)cn2)n[nH]1` [Prexasertib] + CCc1c2c(nc3ccc(O)cc13)-c1cc3c(c(=O)n1C2)COC(=O)[C@]3(O)CC [SN-38] (first compound max 1 µM, 7x7, partner max 0.3 µM), for which the Bliss excess in experiment [1] is 0.0455; in experiment [2], -0.1; in experiment [3] it was -0.0684; in experiment [4] it was 0.115; in experiment [5] it was -0.0205; in experiment [6], -0.0339.
`COc1cccc(OCCCN)c1-c1cc(Nc2cnc(C#N)cn2)n[nH]1` [Prexasertib] + CN(C)CCCOc1ccc(-c2ccc3ncc4c(c3c2)n(C2CCOCC2)c(=O)n4C)cn1 [AZD0156] (first compound max 1 µM, 7x7, partner max 1 µM): the Bliss excess was 0.009 in experiment [1]; -0.0216 in experiment [2]; -0.0429 in experiment [3]; 0.0111 in experiment [4]; 0.0147 in experiment [5]; -0.0451 in experiment [6].
With `COc1cccc(OCCCN)c1-c1cc(Nc2cnc(C#N)cn2)n[nH]1` [Prexasertib] + C[C@@H]1COCCN1C2=NC(=NC(=C2)C3(CC3)[S@](=N)(=O)C)C4=C5C=CNC5=NC=C4 [AZD6738] (first compound max 1 µM, 7x7, partner max 10 µM), the Bliss excess was -0.047 in experiment [1]; -0.0209 in experiment [2]; -0.0153 in experiment [3]; -0.0406 in experiment [4]; -0.003 in experiment [5]; 0.0094 in experiment [6].
`COc1cccc(OCCCN)c1-c1cc(Nc2cnc(C#N)cn2)n[nH]1` [Prexasertib] + Cc1cc2ncnn2cc1Nc1ncc2c(n1)n(C1CCOCC1)c(=O)n2C [AZD7648] (first compound max 1 µM, 7x7, partner max 10 µM): the Bliss excess in experiment [1] is -0.0315; in experiment [2], -0.0217; in experiment [3], 0.0594; in experiment [4] it was -0.0037; in experiment [5] it was -0.0045; in experiment [6], 0.0011.
Turning to `COc1cccc(OCCCN)c1-c1cc(Nc2cnc(C#N)cn2)n[nH]1` [Prexasertib] + O=C(c1cc(Cc2n[nH]c(=O)c3ccccc23)ccc1F)N1CCN(C(=O)C2CC2)CC1 [Olaparib] (first compound max 1 µM, 7x7, partner max 10 µM), the Bliss excess in experiment [1] is -0.0509; in experiment [2], -0.0484; in experiment [3] it was -0.0685; in experiment [4], -0.131; in experiment [5], -0.169; in experiment [6] it was -0.0152.
For `COc1cc2c(cc1OCCCCCOc1cc3c(cc1OC)C(=O)N1C=C(C)C[C@H]1C=N3)N=C[C@@H]1CC(C)=CN1C2=O` [SG3199] + O=C(c1cc(Cc2n[nH]c(=O)c3ccccc23)ccc1F)N1CCN(C(=O)C2CC2)CC1 [Olaparib] (first compound max 0.001 µM, 7x7, partner max 10 µM), the Bliss excess was -0.0682 in experiment [1]; -0.0151 in experiment [2]; -0.0473 in experiment [3]; -0.0213 in experiment [4]; -0.0506 in experiment [5]; -0.0575 in experiment [6].
